The values that follow come from patent publication US20060004028A1, “Novel PARP inhibitor” (MOCHIDA PHARMACEUTICAL CO., LTD., priority 2002, published 2006).

Usually melting point stands for the temperature, or range, at which the solid turns liquid. `COc1ccc(C2NC(=O)c3cccc4c3N2CCC4=O)cc1[N+](=O)[O-]` (stereo not shown) [Example 10, 3-(4-methoxy-3-nitrophenyl)-6,7-dihydro-1H,5H-pyrido[3,2,1-ij]quinazoline-1,7-(2H)-dione]: the melting point is 275.4 to 277.1 °C.

For the compound `O=C1CCN2c3c1cccc3C(=O)NC2c1cccnc1` (stereo not shown), the melting point is 190 to 191.6 °C.

For the compound `COc1cc(C2NC(=O)c3cccc4c3N2CCC4=O)ccc1F` (stereo not shown) [Example 36, 3-(4-fluoro-3-methoxyphenyl)-6,7-dihydro-3H,5H-pyrido[3,2,1-ij]quinazoline-1,7(2H)-dione], the melting point lay in the range of 171 to 172.9 °C.

For the compound `CCOC(=O)COc1ccc(C2NC(=O)c3cccc4c3N2CCC4=NO)cc1` (stereo not shown) [Example 59, 3-(4-ethoxycarbonylmethoxyphenyl)-7-hydroxyimino-6,7-dihydro-3H,5H-pyrido[3,2,1-ij]quinazoline-1(2H)-one], the melting point was 198.6 to 203.3 °C.

As to `COc1ccc(C2NC(=O)c3ccc(Cl)c4c3N2CCC4=NO)cc1` (stereo not shown) [Example 52, 8-chloro-7-hydroxyimino-3-(4-methoxyphenyl)-6,7-dihydro-3H,5H-pyrido[3,2,1-ij]quinazoline-1(2H)-one], the melting point is 132.9 to 133.4 °C.

For `COc1ccc(C2NC(=O)c3cccc4c3N2CCC4NC(=O)c2ccc(N(C)C)cc2)cc1` (stereo not shown) [Example 132, 7-(4-N,N-dimethylamino)benzoylamino-3-(4-methoxyphenyl)-6,7-dihydro-3H,5H-pyrido[3,2,1-ij]quinazoline-1(2H)-one], the melting point was 201.4 to 202.9 °C.

Regarding `O=C1CCN2c3c1cccc3C(=O)NC2c1ccc(C(F)(F)F)cc1` (stereo not shown) [Example 35, 3-(4-trifluoromethylphenyl)-6,7-dihydro-3H,5H-pyrido[3,2,1-ij]quinazoline-1,7(2H)-dione], the melting point lay within 203.1 to 208 °C.

For the compound `CON=C1CCN2c3c(cccc31)C(=O)NC2c1ccc(OC(C)C)cc1` (stereo not shown) [Example 64, 3-(4-isopropoxyphenyl)-7-methoxyimino-6,7-dihydro-3H,5H-pyrido[3,2,1-ij]quinazoline-1(2H)-one], the melting point lay in the range of 167.4 to 168.9 °C.

Compound `COc1cc(C2NC(=O)c3cccc4c3N2CCC4=NO)cc(Br)c1OC` (stereo not shown) [Example 56, 3-(3-bromo-4,5-dimethoxyphenyl)-7-hydroxyimino-6,7-dihydro-3H,5H-pyrido[3,2,1-ij]quinazoline-1(2H)-one] came in with a melting point of 133.9 to 146.8 °C.

As to `COc1ccc(C2NC(=O)c3cccc4c3N2CCC4=NO)cc1Cl` (stereo not shown) [Example 70, 3-(3-chloro-4-methoxyphenyl)-7-hydroxyimino-3-6,7-dihydro-3H,5H-pyrido[3,2,1-ij]quinazoline-1(2H)-one], the melting point was 220 °C (dec.).

As for `CON=C1CCN2c3c(cccc31)C(=O)NC2c1ccc(C(F)(F)F)cc1` (stereo not shown) [Example 62, 7-methoxyimino-3-(4-trifluoromethylphenyl)-6,7-dihydro-3H,5H-pyrido[3,2,1-ij]quinazoline-1(2H)-one], the melting point was 199.4 to 207.2 °C.

On to `CON=C1CCN2c3c(cccc31)C(=O)NC2c1ccc(-n2ccnc2)cc1` (stereo not shown) [Example 58, 3-[4-(imidazole-1-yl)phenyl]-7-methoxyimino-6,7-dihydro-3H,5H-pyrido[3,2,1-ij]quinazoline-1(2H)-one], for which the melting point is 246.3 °C (dec.).

The compound `COc1cc(C2NC(=O)c3cccc4c3N2CCC4=NO)ccc1O` (stereo not shown) [Example 61, 7-hydroxyimino-3-(4-hydroxy-3-methoxyphenyl)-6,7-dihydro-3H,5H-pyrido[3,2,1-ij]quinazoline-1(2H)one] came in with a melting point of 174.4 to 189.3 °C.

As to `COc1ccc(C2NC(=O)c3cccc4c3N2CCC4=O)c(C)c1` (stereo not shown) [Example 49, 3-(2-methyl-4-methoxyphenyl)-6,7-dihydro-3H,5H-pyrido[3,2,1-ij]quinazoline-1,7(2H)-dione], the melting point was in the range of 100.2 to 101.1 °C.

Compound `COc1ccc(C2NC(=O)c3cc(F)cc4c3N2CCC4=O)cc1` (stereo not shown) [Example 24, 9-fluoro-3-(4-methoxyphenyl)-6,7-dihydro-3H,5H-pyrido[3,2,1-ij]quinazoline-1,7(2H)-dione] returned a melting point of 164.7 to 166 °C.

For the compound `COc1ccccc1C1NC(=O)c2cccc3c2N1CCC3=O` (stereo not shown) [Example 43, 3-(2-methoxyphenyl)-6,7-dihydro-3H,5H-pyrido[3,2,1-ij]quinazoline-1,7(2H)-dione], the melting point lay within 214.7 to 219.5 °C.

Compound `CON=C1CCN2c3c(cccc31)C(=O)NC2Cc1ccc(OC)cc1` (stereo not shown) [Example 69, 7-methoxyimino-3-(4-methoxyphenyl)methyl-6,7-dihydro-3H,5H-pyrido[3,2,1-ij]quinazoline-1(2H)-one] had a melting point of 190 to 195.9 °C.

`COc1ccc([C@@H]2NC(=O)c3cccc4c3N2CC[C@H]4N)cc1` [Example 7, (+)-(3R,7R)-7-amino-3-(4-methoxyphenyl)-6,7-dihydro-3H,5H-pyrido-[3,2,1-ij]quinazoline-1(2H)-one] gave a melting point of 110 to 112.7 °C.

Compound `COc1ccc(C2NC(=O)c3cccc4c3N2CCC4=NO)cc1C` (stereo not shown) [Example 57, 7-hydroxyimino-3-(3-methyl-4-methoxyphenyl)-6,7-dihydro-3H,5H-pyrido[3,2,1-ij]quinazoline-1(2H)-one] registered a melting point of 236 to 243.3 °C.

`O=C1CCN2c3c1cccc3C(=O)NC2c1ccc(Br)cc1` (stereo not shown) [Example 21, 3-(4-bromophenyl)-6,7-dihydro-3H,5H-pyrido[3,2,1-ij]quinazoline-1,7(2H)-dione] displayed a melting point of 206.2 to 214 °C.

The compound `O=C1NC(c2ccc(Br)cc2)N2CCC(=NO)c3cccc1c32` (stereo not shown) [Example 79, 3-(4-bromophenyl)-7-hydroxyimino-6,7-dihydro-3H,5H-pyrido[3,2,1-ij]quinazoline-1(2H)-one] gave a melting point of 230 to 236.9 °C.

Compound `CON=C1CCN2c3c(cccc31)C(=O)NC2c1cccnc1` (stereo not shown) [Example 67, 7-methoxyimino-3-(3-pyridyl)-6,7-dihydro-3H,5H-pyrido[3,2,1-ij]quinazoline-1(2H)-one] came in with a melting point of 178.6 to 185.9 °C.

Compound `COc1ccc2cc(C3NC(=O)c4cccc5c4N3CCC5=O)ccc2c1` (stereo not shown) [Example 47, 3-(6-methoxynaphthalene-2-yl)-6,7-dihydro-3H,5H-pyrido[3,2,1-ij]quinazoline-1,7(2H)-dione] yielded a melting point of 191.4 to 195.5 °C.

Compound `COc1ccc(C2NC(=O)c3cccc4c3N2CCC4NCc2ccc(N(C)C)cc2)cc1` (stereo not shown) [Example 13, 7-(4-N,N-dimethylaminophenyl)methylamino-3-(4-methoxyphenyl)-6,7-dihydro-3H,5H-pyrido[3,2,1-ij]quinazoline-1(2H)-one] showed a melting point of 73.2 to 75.6 °C.

Regarding `COc1ccc(C2NC(=O)c3cccc4c3N2CCC4)cc1` (stereo not shown) [Example 103, 3-(4-methoxyphenyl)-6,7-dihydro-3H,5H-pyrido[3,2,1-ij]quinazoline-1(2H)-one], the melting point was 143.3 to 154.6 °C.

`O=C1CCN2c3c1cccc3C(=O)NC2c1ccc(F)cc1` (stereo not shown) [Example 19, 3-(4-fluorophenyl)-6,7-dihydro-3H,5H-pyrido[3,2,1-ij]quinazoline-1,7(2H)-dione] displayed a melting point of 216 to 224.8 °C.

In the case of `COc1ccc(C2NC(=O)c3cccc4c3N2CCC4O)cc1` (stereo not shown) [Example 2, 7-hydroxy-3-(4-methoxyphenyl)-6,7-dihydro-3H,5H-pyrido[3,2,1-ij]quinazoline-1(2H)-one], the melting point was in the range of 95.7 to 99.6 °C.

For `COc1cccc(C2NC(=O)c3cccc4c3N2CCC4=O)c1` (stereo not shown) [Example 44, 3-(3-methoxyphenyl)-6,7-dihydro-3H,5H-pyrido[3,2,1-ij]quinazoline-1,7(2H)-dione], the melting point lay within 126.5 to 142.5 °C.

For `CON=C1CCN2c3c(cc(F)cc31)C(=O)NC2c1ccc(OC)cc1` (stereo not shown) [Example 51, 9-fluoro-7-methoxyimino-3-(4-methoxyphenyl)-6,7-dihydro-3H,5H-pyrido[3,2,1-ij]quinazoline-1(2H)-one], the melting point is 200.1 to 202.9 °C.

`COc1ccc(Cc2nc(=O)c3cccc4c3n2CCC4=O)cc1` [Example 41, 3-(4-methoxyphenyl)methyl-6,7-dihydro-5H-pyrido[3,2,1-ij]quinazoline-1,7-dione] yielded a melting point of 81.4 to 82 °C.

`CON=C1CCN2c3c(cccc31)C(=O)NC2c1ccc(OCCCN(C)C)cc1` (stereo not shown) [Example 53, 7-methoxyimino-3-[4-(3-N,N-dimethylaminopropoxy)phenyl]-6,7-dihydro-3H,5H-pyrido[3,2,1-ij]quinazoline-1(2H)-one]: the melting point was 164.3 to 167 °C.

`O=C1CCN2c3c1cccc3C(=O)NC2c1ccsc1` (stereo not shown) [Example 46, 3-(3-thienyl)-6,7-dihydro-3H,5H-pyrido[3,2,1-ij]quinazoline-1,7(2H)-dione] displayed a melting point of 190.9 to 193.4 °C.

In turn, `COc1ccc(C2NC(=O)c3cccc4c3N2CCC4=NO)cc1` (stereo not shown) [Example 3, 7-hydroxyimino-3-(4-methoxyphenyl)-6,7-dihydro-3H,5H-pyrido[3,2,1-ij]quinazoline-1(2H)] returned a melting point of 200.8 to 211.9 °C.

With `COc1ccc(C2NC(=O)c3cccc4c3N2CCNC4=O)cc1` (stereo not shown) [Example 14, 3-(4-methoxyphenyl)-5,6-dihydro-3H-pyrimido[5,6,1-jk][1,4]benzdiazepin-1,8(2H,7H)-dione], the melting point is 279.9 °C (dec.).

Compound `COc1ccc(C2NC(=O)c3cccc4c3N2CCC4NC(=O)CN(C)C)cc1` (stereo not shown) [Example 136, 7-(N,N-dimethylaminoacetyl)amino-3-(4-methoxyphenyl)-6,7-dihydro-3H,5H-pyrido[3,2,1-ij]quinazoline-1(2H)-one] showed a melting point of 161.4 to 166.6 °C.

Take `COc1cc(C2NC(=O)c3cccc4c3N2CCC4=NO)ccc1F` (stereo not shown) [Example 63, 3-(4-fluoro-3-methoxyphenyl)-7-hydroxyimino-6,7-dihydro-3H,5H-pyrido[3,2,1-ij]quinazoline-1(2H)-one]: the melting point lay in the range of 245.4 to 246.6 °C.

For `COc1ccc(C2NC(=O)c3cccc4c3N2CCC4=O)cc1` (stereo not shown) [Example 1, 3-(4-methoxyphenyl)-6,7-dihydro-3H,5H-pyrido[3,2,1-ij]quinazoline-1,7(2H)-dione], the melting point was 137.4 to 144.2 °C.
